Laboratory results as given in ChEMBL document CHEMBL5723585, “Data for DCP probe JNJ-54082730” (2024).

Assays:
[1] = biological target: 5-hydroxytryptamine receptor 3A (Homo sapiens) (UniProt P46098); assay: 5-HT3 Eurofins-Cerep binding assay; set-up: ligand concentration 0.5 nM; details: filed as antagonist, Compound concentration 10.0 uM
[2] = biological target: Mu-type opioid receptor (Homo sapiens) (UniProt P35372); assay: mu (MOP) Eurofins-Cerep binding assay; set-up: ligand concentration 0.5 nM; details: filed as agonist, Compound concentration 10.0 uM
[3] = biological target: Muscarinic acetylcholine receptor M1 (Homo sapiens) (UniProt P11229); assay: M1 Eurofins-Cerep binding assay; set-up: ligand concentration 2 nM; details: filed as antagonist, Compound concentration 10.0 uM
[4] = biological target: Vasopressin V1a receptor (Homo sapiens) (UniProt P37288); assay: V1a Eurofins-Cerep binding assay; set-up: ligand concentration 0.3 nM; details: filed as agonist, Compound concentration 10.0 uM
[5] = species on record: Rattus norvegicus; assay: alpha 2 (non-selective) Eurofins-Cerep binding assay; assay type: protein assay; set-up: ligand concentration 1 nM; details: filed as antagonist, Compound concentration 10.0 uM
[6] = biological target: Beta-1 adrenergic receptor (Homo sapiens) (UniProt P08588); assay: beta 1 Eurofins-Cerep binding assay; set-up: ligand concentration 0.3 nM; details: filed as agonist, Compound concentration 10.0 uM
[7] = species on record: Rattus norvegicus; assay: Ca2+ channel (L,verapamil site) (phenylalkylamine) Eurofins-Cerep binding assay; assay type: protein assay; set-up: ligand concentration 3 nM; details: filed as antagonist, Compound concentration 10.0 uM
[8] = biological target: Galanin receptor type 2 (Homo sapiens) (UniProt O43603); assay: GAL2 Eurofins-Cerep binding assay; set-up: ligand concentration 0.05 nM; details: filed as agonist, Compound concentration 10.0 uM
[9] = species on record: Rattus norvegicus; assay: Cl-channel (GABA-gated) Eurofins-Cerep binding assay; set-up: ligand concentration 3 nM; details: filed as antagonist, Compound concentration 10.0 uM
[10] = biological target: Kappa-type opioid receptor (Homo sapiens) (UniProt P41145); assay: kappa (KOP) Eurofins-Cerep binding assay; details: filed as agonist, Compound concentration 10.0 uM
[11] = biological target: Substance-K receptor (Homo sapiens) (UniProt P21452); assay: NK2 Eurofins-Cerep binding assay; set-up: ligand concentration 0.1 nM; details: filed as agonist, Compound concentration 10.0 uM
[12] = biological target: D(1A) dopamine receptor (Homo sapiens) (UniProt P21728); assay: D1 Eurofins-Cerep binding assay; set-up: ligand concentration 0.3 nM; details: filed as antagonist, Compound concentration 10.0 uM
[13] = biological target: Melanocortin receptor 4 (Homo sapiens) (UniProt P32245); assay: MC4 Eurofins-Cerep binding assay; set-up: ligand concentration 0.05 nM; details: filed as agonist, Compound concentration 10.0 uM
[14] = biological target: Histamine H1 receptor (Homo sapiens) (UniProt P35367); assay: H1 Eurofins-Cerep binding assay; set-up: ligand concentration 1 nM; details: filed as antagonist, Compound concentration 10.0 uM
[15] = biological target: GABA-A receptor; anion channel (Rattus norvegicus) (UniProt O09028+P15431+P18506+P18508+P19969+P20236+P23574+P23576+P28471+P28473+P30191+P62813+P63079+P63138+Q91ZM7+Q9ES14); assay: GABA (non-selective) Eurofins-Cerep binding assay; assay type: protein-complex assay; set-up: ligand concentration 10 nM; details: filed as agonist, Compound concentration 10.0 uM
[16] = biological target: cGMP-specific 3',5'-cyclic phosphodiesterase (Homo sapiens, UniProt O76074); assay: IC50 of hPDE5A3 in the PDE screen at 1.0 µM
[17] = biological target: Histamine H2 receptor (Homo sapiens) (UniProt P25021); assay: H2 Eurofins-Cerep binding assay; set-up: ligand concentration 0.075 nM; details: filed as antagonist, Compound concentration 10.0 uM
[18] = biological target: Adenosine receptor A3 (Homo sapiens) (UniProt P0DMS8); assay: A3 Eurofins-Cerep binding assay; set-up: ligand concentration 0.15 nM; details: filed as agonist, Compound concentration 10.0 uM
[19] = biological target: Sodium-dependent noradrenaline transporter (Homo sapiens) (UniProt P23975); assay: norepinephrine transporter Eurofins-Cerep binding assay; set-up: ligand concentration 1 nM; details: filed as antagonist, Compound concentration 10.0 uM
[20] = biological target: 3',5'-cyclic-AMP phosphodiesterase 4D (Homo sapiens, UniProt Q08499); assay: IC50 of hPDE4D3 in the PDE screen at 1.0 µM
[21] = biological target: Neuropeptide Y receptor type 1 (Homo sapiens) (UniProt P25929); assay: Y1 Eurofins-Cerep binding assay; set-up: ligand concentration 0.025 nM; details: filed as agonist, Compound concentration 10.0 uM
[22] = biological target: 5-hydroxytryptamine receptor 2A (Homo sapiens) (UniProt P28223); assay: 5-HT2A Eurofins-Cerep binding assay; set-up: ligand concentration 0.5 nM; details: filed as antagonist, Compound concentration 10.0 uM
[23] = biological target: Adenosine receptor A1 (Homo sapiens) (UniProt P30542); assay: A1 Eurofins-Cerep binding assay; set-up: ligand concentration 1 nM; details: filed as antagonist, Compound concentration 10.0 uM
[24] = biological target: 5-hydroxytryptamine receptor 6 (Homo sapiens) (UniProt P50406); assay: 5-HT6 Eurofins-Cerep binding assay; set-up: ligand concentration 2 nM; details: filed as agonist, Compound concentration 10.0 uM
[25] = biological target: High affinity cGMP-specific 3',5'-cyclic phosphodiesterase 9A (Homo sapiens, UniProt O76083); assay: IC50 of hPDE9A in the PDE screen at 1.0 µM
[26] = biological target: Neurotensin receptor type 1 (Homo sapiens) (UniProt P30989); assay: NTS1 (NT1) Eurofins-Cerep binding assay; set-up: ligand concentration 0.05 nM; details: filed as agonist, Compound concentration 10.0 uM
[27] = biological target: Sodium-dependent serotonin transporter (Homo sapiens) (UniProt P31645); assay: 5-HT transporter Eurofins-Cerep binding assay; set-up: ligand concentration 2 nM; details: filed as antagonist, Compound concentration 10.0 uM
[28] = biological target: Dual specificity calcium/calmodulin-dependent 3',5'-cyclic nucleotide phosphodiesterase 1B (Homo sapiens, UniProt Q01064); assay: IC50 of hPDE1B1 in the PDE screen at 1.0 µM
[29] = biological target: Nociceptin receptor (Homo sapiens) (UniProt P41146); assay: NOP (ORL1) Eurofins-Cerep binding assay; set-up: ligand concentration 0.06 nM; details: filed as agonist, Compound concentration 10.0 uM
[30] = biological target: Adenosine receptor A2a (Homo sapiens) (UniProt P29274); assay: A2A Eurofins-Cerep binding assay; set-up: ligand concentration 6 nM; details: filed as agonist, Compound concentration 10.0 uM
[31] = biological target: Neuropeptide Y receptor type 2 (Homo sapiens) (UniProt P49146); assay: Y2 Eurofins-Cerep binding assay; set-up: ligand concentration 0.015 nM; details: filed as agonist, Compound concentration 10.0 uM
[32] = biological target: 5-hydroxytryptamine receptor 1A (Homo sapiens) (UniProt P08908); assay: 5-HT1A Eurofins-Cerep binding assay; set-up: ligand concentration 0.5 nM; details: filed as agonist, Compound concentration 10.0 uM
Chain of 5-hydroxytryptamine receptor 1A (Homo sapiens) (P08908 whole entry): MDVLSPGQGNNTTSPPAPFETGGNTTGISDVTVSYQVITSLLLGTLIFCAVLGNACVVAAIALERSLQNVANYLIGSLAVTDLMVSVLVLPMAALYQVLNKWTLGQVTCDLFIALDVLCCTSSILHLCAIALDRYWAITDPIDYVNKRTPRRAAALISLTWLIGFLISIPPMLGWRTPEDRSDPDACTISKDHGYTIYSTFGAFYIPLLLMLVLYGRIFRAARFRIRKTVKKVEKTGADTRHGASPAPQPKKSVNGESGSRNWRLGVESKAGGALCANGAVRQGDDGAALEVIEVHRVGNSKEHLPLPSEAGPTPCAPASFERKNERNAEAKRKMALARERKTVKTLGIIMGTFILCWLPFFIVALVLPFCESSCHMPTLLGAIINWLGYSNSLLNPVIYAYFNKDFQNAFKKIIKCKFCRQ

Chain of Sodium-dependent serotonin transporter (Homo sapiens) (P31645 whole entry, looked up): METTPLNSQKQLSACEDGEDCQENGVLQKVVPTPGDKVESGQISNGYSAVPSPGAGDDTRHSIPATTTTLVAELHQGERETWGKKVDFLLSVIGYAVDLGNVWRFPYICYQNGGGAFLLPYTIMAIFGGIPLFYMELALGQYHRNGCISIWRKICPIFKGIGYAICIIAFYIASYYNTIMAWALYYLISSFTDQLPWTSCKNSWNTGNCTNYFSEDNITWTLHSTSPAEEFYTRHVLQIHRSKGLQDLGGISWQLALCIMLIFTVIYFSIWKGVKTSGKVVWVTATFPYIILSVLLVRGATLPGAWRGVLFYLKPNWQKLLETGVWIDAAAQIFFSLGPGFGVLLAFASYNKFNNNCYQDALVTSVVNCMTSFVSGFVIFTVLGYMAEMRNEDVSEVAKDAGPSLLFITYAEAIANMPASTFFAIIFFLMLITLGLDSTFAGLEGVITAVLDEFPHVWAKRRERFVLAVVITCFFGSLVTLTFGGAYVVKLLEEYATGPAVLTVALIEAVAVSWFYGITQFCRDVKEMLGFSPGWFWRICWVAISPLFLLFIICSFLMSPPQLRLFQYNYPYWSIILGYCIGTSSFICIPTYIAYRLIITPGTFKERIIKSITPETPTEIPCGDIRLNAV
Chain of Neuropeptide Y receptor type 2 (Homo sapiens) (P49146 whole entry): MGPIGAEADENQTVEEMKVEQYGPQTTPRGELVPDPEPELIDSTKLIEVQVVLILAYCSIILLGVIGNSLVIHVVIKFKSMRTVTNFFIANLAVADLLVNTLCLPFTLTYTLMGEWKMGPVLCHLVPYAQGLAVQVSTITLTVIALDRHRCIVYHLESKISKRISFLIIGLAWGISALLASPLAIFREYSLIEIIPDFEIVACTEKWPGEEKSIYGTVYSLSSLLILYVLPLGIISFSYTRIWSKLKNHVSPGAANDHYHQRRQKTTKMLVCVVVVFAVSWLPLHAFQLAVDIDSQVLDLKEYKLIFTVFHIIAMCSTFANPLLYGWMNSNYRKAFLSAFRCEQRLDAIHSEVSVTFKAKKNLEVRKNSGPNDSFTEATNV
Chain of Kappa-type opioid receptor (Homo sapiens) (P41145 whole entry): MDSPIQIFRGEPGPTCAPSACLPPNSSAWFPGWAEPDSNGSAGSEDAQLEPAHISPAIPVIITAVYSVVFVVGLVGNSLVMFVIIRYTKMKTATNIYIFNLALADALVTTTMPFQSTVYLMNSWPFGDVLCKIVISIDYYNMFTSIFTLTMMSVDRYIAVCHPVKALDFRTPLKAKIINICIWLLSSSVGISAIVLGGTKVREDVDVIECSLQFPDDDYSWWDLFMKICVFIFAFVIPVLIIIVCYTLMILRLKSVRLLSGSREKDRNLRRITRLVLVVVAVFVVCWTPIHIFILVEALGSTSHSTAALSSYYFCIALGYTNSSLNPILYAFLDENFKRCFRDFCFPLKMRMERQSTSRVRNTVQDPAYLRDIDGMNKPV
Chain of 3',5'-cyclic-AMP phosphodiesterase 4D (Q08499 whole entry): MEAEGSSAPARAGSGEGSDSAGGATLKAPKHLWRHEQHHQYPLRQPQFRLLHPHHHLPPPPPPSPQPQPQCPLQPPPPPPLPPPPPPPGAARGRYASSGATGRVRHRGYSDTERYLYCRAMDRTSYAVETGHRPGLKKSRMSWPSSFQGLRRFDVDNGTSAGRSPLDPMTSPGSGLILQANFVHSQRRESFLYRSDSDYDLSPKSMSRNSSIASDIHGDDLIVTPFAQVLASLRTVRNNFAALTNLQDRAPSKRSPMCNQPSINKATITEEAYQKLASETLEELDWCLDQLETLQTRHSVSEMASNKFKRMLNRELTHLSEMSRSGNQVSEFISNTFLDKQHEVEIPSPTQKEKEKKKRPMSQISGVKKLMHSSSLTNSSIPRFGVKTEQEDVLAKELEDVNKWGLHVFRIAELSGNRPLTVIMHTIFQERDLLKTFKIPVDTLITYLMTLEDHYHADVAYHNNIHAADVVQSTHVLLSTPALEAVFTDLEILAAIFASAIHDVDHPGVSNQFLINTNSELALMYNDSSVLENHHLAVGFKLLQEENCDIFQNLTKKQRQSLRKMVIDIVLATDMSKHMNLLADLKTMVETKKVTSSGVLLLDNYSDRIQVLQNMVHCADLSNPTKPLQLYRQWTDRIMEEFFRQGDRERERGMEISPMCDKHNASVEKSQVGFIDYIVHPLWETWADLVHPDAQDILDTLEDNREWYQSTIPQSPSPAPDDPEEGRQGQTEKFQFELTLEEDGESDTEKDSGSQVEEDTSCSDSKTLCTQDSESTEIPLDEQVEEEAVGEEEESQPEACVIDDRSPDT
Chain of Sodium-dependent noradrenaline transporter (Homo sapiens) (P23975 whole entry): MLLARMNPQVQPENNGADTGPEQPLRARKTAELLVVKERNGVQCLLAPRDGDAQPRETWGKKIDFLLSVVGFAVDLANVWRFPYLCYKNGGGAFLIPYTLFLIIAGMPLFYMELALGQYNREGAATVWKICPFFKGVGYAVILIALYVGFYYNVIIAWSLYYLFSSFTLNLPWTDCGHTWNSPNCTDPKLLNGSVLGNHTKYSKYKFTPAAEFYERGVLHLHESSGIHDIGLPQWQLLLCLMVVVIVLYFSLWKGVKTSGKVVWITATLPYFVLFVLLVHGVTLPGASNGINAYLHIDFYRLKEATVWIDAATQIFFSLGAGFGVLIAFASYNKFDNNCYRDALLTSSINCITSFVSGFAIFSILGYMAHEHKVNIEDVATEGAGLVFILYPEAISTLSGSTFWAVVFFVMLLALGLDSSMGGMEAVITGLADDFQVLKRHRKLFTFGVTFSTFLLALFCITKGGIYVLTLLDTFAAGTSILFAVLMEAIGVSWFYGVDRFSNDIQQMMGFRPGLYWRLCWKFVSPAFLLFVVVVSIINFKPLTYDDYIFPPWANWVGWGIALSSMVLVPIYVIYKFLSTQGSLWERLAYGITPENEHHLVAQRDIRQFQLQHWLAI
Chain of Galanin receptor type 2 (Homo sapiens) (O43603 whole entry): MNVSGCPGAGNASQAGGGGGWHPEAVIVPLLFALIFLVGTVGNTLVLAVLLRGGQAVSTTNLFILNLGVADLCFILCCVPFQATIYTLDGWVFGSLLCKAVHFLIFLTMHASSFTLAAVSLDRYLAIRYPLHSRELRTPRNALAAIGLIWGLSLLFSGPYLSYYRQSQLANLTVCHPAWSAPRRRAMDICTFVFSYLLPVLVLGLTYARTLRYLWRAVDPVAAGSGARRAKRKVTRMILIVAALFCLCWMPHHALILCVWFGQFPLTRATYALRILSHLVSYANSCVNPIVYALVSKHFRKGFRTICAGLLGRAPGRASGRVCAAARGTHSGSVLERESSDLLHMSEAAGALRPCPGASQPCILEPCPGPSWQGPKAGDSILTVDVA
Chain of 5-hydroxytryptamine receptor 3A (Homo sapiens) (P46098 whole entry): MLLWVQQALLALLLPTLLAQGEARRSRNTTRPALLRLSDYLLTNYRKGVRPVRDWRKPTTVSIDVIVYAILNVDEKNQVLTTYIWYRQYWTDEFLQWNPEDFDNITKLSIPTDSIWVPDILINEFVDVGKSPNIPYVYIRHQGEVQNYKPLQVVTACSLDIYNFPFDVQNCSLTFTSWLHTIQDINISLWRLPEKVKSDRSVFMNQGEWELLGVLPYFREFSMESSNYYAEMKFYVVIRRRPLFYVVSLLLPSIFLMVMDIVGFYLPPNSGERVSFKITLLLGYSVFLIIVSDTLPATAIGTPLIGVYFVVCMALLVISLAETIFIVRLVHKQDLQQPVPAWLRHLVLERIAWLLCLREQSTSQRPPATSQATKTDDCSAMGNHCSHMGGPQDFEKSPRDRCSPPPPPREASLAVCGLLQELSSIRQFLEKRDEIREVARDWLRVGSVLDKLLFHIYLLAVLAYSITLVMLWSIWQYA
Chain of Mu-type opioid receptor (Homo sapiens) (P35372 whole entry): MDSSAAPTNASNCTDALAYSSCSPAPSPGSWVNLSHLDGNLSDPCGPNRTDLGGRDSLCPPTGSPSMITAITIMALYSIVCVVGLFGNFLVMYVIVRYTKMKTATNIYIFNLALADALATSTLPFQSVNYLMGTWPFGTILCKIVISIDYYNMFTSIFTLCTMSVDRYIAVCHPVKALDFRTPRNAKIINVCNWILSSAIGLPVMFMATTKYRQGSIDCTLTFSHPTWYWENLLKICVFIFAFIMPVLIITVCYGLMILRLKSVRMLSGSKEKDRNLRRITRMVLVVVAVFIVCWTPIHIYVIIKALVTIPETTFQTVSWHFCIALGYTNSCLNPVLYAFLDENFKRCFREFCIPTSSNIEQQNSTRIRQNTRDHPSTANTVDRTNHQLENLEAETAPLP
Chain of Adenosine receptor A2a (Homo sapiens) (P29274 whole entry): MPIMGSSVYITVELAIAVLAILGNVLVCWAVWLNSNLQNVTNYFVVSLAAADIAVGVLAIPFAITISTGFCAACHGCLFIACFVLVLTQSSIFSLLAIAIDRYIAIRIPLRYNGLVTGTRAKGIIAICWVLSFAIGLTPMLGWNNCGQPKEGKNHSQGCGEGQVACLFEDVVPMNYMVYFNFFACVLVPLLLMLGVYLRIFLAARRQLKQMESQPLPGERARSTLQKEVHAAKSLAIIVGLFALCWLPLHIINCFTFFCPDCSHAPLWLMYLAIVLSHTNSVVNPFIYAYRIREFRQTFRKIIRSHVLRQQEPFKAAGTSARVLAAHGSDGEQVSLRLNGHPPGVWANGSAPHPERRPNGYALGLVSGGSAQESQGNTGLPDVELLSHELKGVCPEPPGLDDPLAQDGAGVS

## Cc1cc(C(=O)N2CC[C@@H](C)[C@H](c3cc(C(F)F)nc4ncnn34)C2)cc(C)n1
[1]
  residual activity: 103%
[2]
  residual activity: 96%
[3]
  residual activity: 92.8%
[4]
  residual activity: 97.3%
[5]
  residual activity: 104%
[6]
  residual activity: 96.8%
[7]
  residual activity: 96.6%
[8]
  residual activity: 94%
[9]
  residual activity: 102%
[10]
  residual activity: 91%
[11]
  residual activity: 102%
[12]
  residual activity: 99.2%
[13]
  residual activity: 111%
[14]
  residual activity: 106%
[15]
  residual activity: 100%
[16]
  IC50: > 10 µM (not active)
[17]
  residual activity: 103%
[18]
  residual activity: 104%
[19]
  residual activity: 99%
[20]
  IC50: > 10 µM (not active)
[21]
  residual activity: 108%
[22]
  residual activity: 108%
[23]
  residual activity: 107%
[24]
  residual activity: 100%
[25]
  IC50: > 10 µM (not active)
[26]
  residual activity: 111%
[27]
  residual activity: 117%
[28]
  IC50: > 10 µM (not active)
[29]
  residual activity: 103%
[30]
  residual activity: 55.1%
[31]
  residual activity: 109%
[32]
  residual activity: 99%
